Laboratory results: ChEMBL document CHEMBL1201862, “PubChem BioAssay data set” (2004)
Active and inactive are the calls of the source.

Assays:
[1] = biological target: T1, Dual specificity protein phosphatase 6 (Rattus norvegicus, UniProt Q64346); experiment: inhibition of rat DUSP6 enzyme activity – biochemical, in vitro, primary screen (AID 425)
T1 sequence (Q64346 whole entry): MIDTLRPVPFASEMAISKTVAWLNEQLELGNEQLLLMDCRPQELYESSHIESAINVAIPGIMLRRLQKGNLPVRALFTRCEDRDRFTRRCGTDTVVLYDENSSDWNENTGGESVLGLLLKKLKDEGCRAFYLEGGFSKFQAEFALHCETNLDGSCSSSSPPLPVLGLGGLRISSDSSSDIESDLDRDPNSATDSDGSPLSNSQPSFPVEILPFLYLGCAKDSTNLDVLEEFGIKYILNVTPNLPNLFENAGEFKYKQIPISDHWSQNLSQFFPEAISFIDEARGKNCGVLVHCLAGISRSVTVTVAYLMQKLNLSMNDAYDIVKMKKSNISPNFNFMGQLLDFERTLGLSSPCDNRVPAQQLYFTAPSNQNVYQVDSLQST

[2] = viability loss in Vero cells – cytotoxicity control for Vif-APOBEC3G degradation inhibitor project, dose response (AID 1117358); assay type: functional; details: Vero
H9c2 = experiment: cells; assay type: functional, cell-based; details: Rattus norvegicus, H9c2, Myocardium;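 note: confirmatory concentration-response retest of ultra-high-throughput screening hits for modulation of myocardial damage; cell death induced by hydrogen peroxide oxidative stress; compound pretreatment for 60 min then peroxide exposure for 2 h; potency is for protecting the cells against peroxide damage rather than for killing them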
[3] = viability loss in THP-1 monocytes – THP-1 cells, cytotoxicity control for Vif-APOBEC3G degradation inhibitor project, dose response (AID 1117359); assay type: functional; details: THP-1
[4] = biological target: T2, Mannose-6-phosphate isomerase (Homo sapiens, UniProt P34949); experiment: MPI inhibition at elevated mannose 6-phosphate – biochemical, fluorescence intensity, high mannose 6-phosphate, primary screen (AID 1220)
T2 sequence (P34949 whole entry): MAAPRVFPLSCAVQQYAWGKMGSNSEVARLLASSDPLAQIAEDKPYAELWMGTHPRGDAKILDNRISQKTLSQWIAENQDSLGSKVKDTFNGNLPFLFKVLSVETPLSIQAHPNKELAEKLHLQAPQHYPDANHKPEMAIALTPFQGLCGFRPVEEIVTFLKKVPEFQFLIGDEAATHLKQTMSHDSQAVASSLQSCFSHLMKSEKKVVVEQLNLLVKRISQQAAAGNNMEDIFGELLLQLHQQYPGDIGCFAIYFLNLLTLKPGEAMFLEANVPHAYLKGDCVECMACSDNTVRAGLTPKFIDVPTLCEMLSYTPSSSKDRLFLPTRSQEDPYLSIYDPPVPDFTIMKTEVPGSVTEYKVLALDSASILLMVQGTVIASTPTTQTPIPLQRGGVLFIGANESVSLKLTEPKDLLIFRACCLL

[5] = test system: Streptococcus sp. 'group A'; experiment: Streptococcus pyogenes SK(-)GAS viability under kanamycin – luminescence, BacTiterGlo, confirmation, counter-screen for streptokinase expression inhibitor project, dose response (AID 1900); assay type: functional, organism-based
[6] = viability of PTEN-deleted HCT116 cells – cell-based, HCT116 PTEN knockout, dose response (AID 1047); assay type: functional;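 note: HCT116 colon tumor cells with PTEN knocked out; cells exposed to compound for 60 hours before readout; potency for loss of cell viability measured by luminescence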
[7] = viability of HCT116 lacking mutant beta-catenin – cell-based, human colon tumor, dose response (AID 1045); assay type: functional;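 note: HCT116 colon tumor cells with beta catenin knocked out; cells exposed to compound for 60 hours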
[8] = Luminescence Cell-Based Dose Retest to Confirm Inhibitors of Cancer Stem Cells. [Related pubchem assays (depositor defined):AID2717, AID2721]; assay type: functional; details: Homo sapiens
Streptococcus = experiment: GAS UMAA2166 growth inhibition – luminescence, BacTiterGlo, counter-screen for streptokinase expression inhibitor project, dose response (AID 1915); assay type: functional, organism-based;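 note: potency for reduction of bacterial viability or growth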
Streptokinase A = biological target: T3, Streptokinase A (Streptococcus pyogenes serotype M1, UniProt P10520); experiment: viability-normalized secreted streptokinase activity reduction – plasminogen activation absorbance, OD405, dose response (AID 1914); assay type: functional, Streptococcus pyogenes M1 GAS;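 note: secreted streptokinase activity via plasminogen activation per viability signal from cell pellet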
T3 sequence (P10520 whole entry): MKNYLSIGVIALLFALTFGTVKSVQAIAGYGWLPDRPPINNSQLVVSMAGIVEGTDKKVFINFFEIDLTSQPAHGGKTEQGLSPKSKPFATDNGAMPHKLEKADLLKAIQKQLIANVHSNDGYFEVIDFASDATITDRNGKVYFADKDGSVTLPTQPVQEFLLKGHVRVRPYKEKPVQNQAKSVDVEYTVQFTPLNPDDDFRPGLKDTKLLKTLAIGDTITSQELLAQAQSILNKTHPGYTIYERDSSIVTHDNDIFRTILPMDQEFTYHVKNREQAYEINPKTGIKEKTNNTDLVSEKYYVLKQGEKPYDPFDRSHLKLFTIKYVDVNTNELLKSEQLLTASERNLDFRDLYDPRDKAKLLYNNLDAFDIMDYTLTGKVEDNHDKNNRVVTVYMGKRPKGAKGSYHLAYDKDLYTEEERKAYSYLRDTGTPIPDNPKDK

[9] = Trypanosoma cruzi growth suppression in host cells – NIH3T3 host cells, beta-gal luminescence, confirmation (AID 2044); assay type: functional, cell-based;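 note: intracellular parasites grown in NIH/3T3 mouse fibroblasts as host cells; luminescent beta-galactosidase reporter signal from transgenic T. cruzi replicating inside host cells; inhibitors lower the luminescence signal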
[10] = NIH3T3 cell viability loss – ATP luminescence, mouse fibroblasts, counter-screen, dose response (AID 2010); assay type: functional, cell-based;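 note: cells exposed to compound for about 90 hours before reading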
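Throughout, for AC50: cells exposed to compound for roughly 70 hours or longer before luminescence read.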

Compound: O=C(CN(Cc1ccco1)C(=O)CNS(=O)(=O)c1ccc(F)cc1)NCCc1ccccc1
- IC50 [1]: > 100 µM (not active)

Compound: Cc1ccc(C)c2nc(O)c(CN(Cc3ccc4c(c3)OCO4)Cc3nnnn3Cc3ccco3)cc12
- CC50 [2]: > 40 µM (active)
- IC50 (H9c2): > 79 µM (inactive)

Compound: COc1ccccc1-n1c(SCC(=O)NCc2ccc3c(c2)OCO3)nc2cc([N+](=O)[O-])ccc21
- CC50 [3]: > 40 µM (active)
- IC50 [4]: > 50 µM (not active)

Compound: O=C(/C=C/c1ccccc1)NC(NC(=S)Nc1cc(Cl)ccc1Cl)C(Cl)(Cl)Cl (centres undefined)
- EC50 [5]: 2.43 µM (active)
- EC50 [6]: 17.3 µM (active)
- EC50 [7]: 16.1 µM (active)
- CC50 [2]: > 40 µM (active)
- AC50 [8]: 0.993 µM (active)
- EC50 (Streptococcus): 64.2 µM (active)
- EC50 (Streptokinase A): 4.43 µM (active)
- EC50 [9]: 1.73 µM (active)
- EC50 [10]: > 60 µM (not active)
